Assay results reported in US11236046B2, “Substituted heterocyclic sulfonamide compounds useful as TRPA1 modulators” (Genentech, Inc., priority 2013, dated 2022).

Target: human TRPA1 (Homo sapiens (Human), UniProt O75762)
Experiment: FLIPR Tetra calcium influx assay, block of cinnamaldehyde-induced calcium influx in CHO cells expressing TRPA1 (human)
Type: cell-based
Details: 20 min compound incubation, 75 uM cinnamaldehyde (~EC80), Hill coefficient fixed to 1.5, read-out: hTRPA1 AUC IC50
Method in brief: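 CHO cells loaded with calcium dye, preincubated with compounds 20 min at room temperature in HBSS/20 mM HEPES pH 7.4 with 0.02% BSA. Channels activated by ~EC80 cinnamaldehyde (75 uM human, 45 uM rat); block of calcium influx read on FLIPR Tetra, IC50 fitted with fixed Hill coefficient.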

Chain of human TRPA1 (O75762 whole entry): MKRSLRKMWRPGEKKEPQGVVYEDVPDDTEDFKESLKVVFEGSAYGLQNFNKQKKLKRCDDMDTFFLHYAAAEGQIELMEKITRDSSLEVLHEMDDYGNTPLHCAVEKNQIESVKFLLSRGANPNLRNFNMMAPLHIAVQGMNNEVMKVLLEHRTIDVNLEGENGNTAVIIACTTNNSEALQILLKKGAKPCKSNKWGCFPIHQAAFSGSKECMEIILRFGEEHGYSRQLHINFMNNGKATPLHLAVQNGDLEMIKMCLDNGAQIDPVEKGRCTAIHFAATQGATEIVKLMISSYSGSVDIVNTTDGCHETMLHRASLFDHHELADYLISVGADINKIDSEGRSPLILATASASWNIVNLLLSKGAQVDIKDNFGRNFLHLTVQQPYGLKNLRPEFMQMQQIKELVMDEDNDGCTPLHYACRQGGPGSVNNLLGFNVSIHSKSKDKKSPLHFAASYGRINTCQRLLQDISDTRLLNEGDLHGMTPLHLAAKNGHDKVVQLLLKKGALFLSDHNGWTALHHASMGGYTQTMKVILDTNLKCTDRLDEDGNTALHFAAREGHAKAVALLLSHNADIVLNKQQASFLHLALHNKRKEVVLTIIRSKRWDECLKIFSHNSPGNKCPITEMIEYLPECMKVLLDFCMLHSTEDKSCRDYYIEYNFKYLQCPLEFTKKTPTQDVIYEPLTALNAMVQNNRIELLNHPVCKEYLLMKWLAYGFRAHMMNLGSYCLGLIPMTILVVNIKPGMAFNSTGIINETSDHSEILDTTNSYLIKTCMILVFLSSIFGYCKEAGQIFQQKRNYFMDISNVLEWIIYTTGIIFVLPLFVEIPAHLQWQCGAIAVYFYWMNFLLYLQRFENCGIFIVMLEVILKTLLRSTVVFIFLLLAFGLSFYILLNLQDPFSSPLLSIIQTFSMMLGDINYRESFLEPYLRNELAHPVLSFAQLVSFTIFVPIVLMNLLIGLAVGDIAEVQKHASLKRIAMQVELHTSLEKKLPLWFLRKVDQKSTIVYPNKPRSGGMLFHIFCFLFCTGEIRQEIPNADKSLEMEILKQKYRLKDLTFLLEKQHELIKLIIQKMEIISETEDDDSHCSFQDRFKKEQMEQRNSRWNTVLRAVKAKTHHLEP

SMILES | IC50
C[C@@]1(F)C[C@@H](C(=O)NCc2cc(F)cc(-c3cnc(C(F)(F)F)nc3)c2)N(S(=O)(=O)c2ccc(F)cc2)C1 [Example 52, (2S,4R)-4-fluoro-N-(3-fluoro-5-(2-(trifluoromethyl)pyrimidin-5-yl)benzyl)-1-((4-fluorophenyl)sulfonyl)-4-methylpyrrolidine-2-carboxamide] | 16 nM
O=C(NCc1cc([C@H]2CC[C@H](C(F)(F)F)CC2)ncn1)[C@@H]1C[C@@H](F)CN1S(=O)(=O)c1ccc(F)cc1 (single isomer, unassigned) [Example 149] | 34 nM
C[C@@]1(F)C[C@@H](C(=O)NCc2cc(-c3ccc(OC(F)(F)F)cc3)ncn2)N(S(=O)(=O)c2ccc(F)cc2)C1 [Example 46, (2S,4R)-4-fluoro-1-((4-fluorophenyl)sulfonyl)-4-methyl-N-((6-(4-(trifluoromethoxy)phenyl)pyrimidin-4-yl)methyl)pyrrolidine-2-carboxamide] | 20 nM
O=C(NCc1cc(-c2cnc(C(F)(F)F)nc2)ccn1)[C@@H]1C[C@@H](F)CN1S(=O)(=O)c1ccc(F)cc1 [Example 53, (2S,4R)-4-fluoro-1-(4-fluorophenyl)sulfonyl-N-[[4-[2-(trifluoromethyl)pyrimidin-5-yl]-2-pyridyl]methyl]pyrrolidine-2-carboxamide] | 411 nM
C[C@@]1(C(=O)NCc2cc(-c3ccc(C(F)(F)F)nc3)ncn2)C[C@@H](F)CN1S(=O)(=O)c1ccc(F)cc1 (single isomer, unassigned) [Example 142] | 92 nM
O=C(NCc1cc(-c2ccc(C(F)(F)F)cc2F)ncn1)[C@@H]1C[C@@H](F)CN1S(=O)(=O)c1ccc(F)cc1 [Example 113, (2S,4R)-4-fluoro-N-((6-(2-fluoro-4-(trifluoromethyl)phenyl)pyrimidin-4-yl)methyl)-1-(4-fluorophenylsulfonyl)pyrrolidine-2-carboxamide] | 161 nM
O=C(NCc1cc(F)cc(-c2cnc(C(F)(F)F)cn2)c1)[C@@H]1[C@@H](F)CCN1S(=O)(=O)c1ccc(F)cc1 [Example 98, (2R,3S)-3-fluoro-N-([3-fluoro-5-[5-(trifluoromethyl)pyrazin-2-yl]phenyl]methyl)-1-[(4-fluorobenzene)sulfonyl]pyrrolidine-2-carboxamide] | 4 nM
O=C(NCc1cc(C2=CCC(C(F)(F)F)CC2)ncn1)[C@@H]1C[C@@H](F)CN1S(=O)(=O)c1ccc(F)cc1 (stereo partly drawn) [Example 148, (2S,4R)-4-fluoro-1-(4-fluorophenylsulfonyl)-N-((6-(4-(trifluoromethyl)cyclohex-1-enyl)pyrimidin-4-yl)methyl)pyrrolidine-2-carboxamide] | 46 nM
COc1nc(C(F)(F)F)ccc1-c1cc(F)cc(CNC(=O)[C@@H]2C[C@@H](F)CN2S(=O)(=O)c2ccc(F)cc2)c1 [Example 44, (2S,4R)-4-fluoro-N-([3-fluoro-5-[2-methoxy-6-(trifluoromethyl)pyridin-3-yl]phenyl]methyl)-1-[(4-fluorobenzene)sulfonyl]pyrrolidine-2-carboxamide] | 48 nM
C[C@@]1(F)C[C@@H](C(=O)NCc2cc(F)cc(-c3ccc(C(F)(F)F)nn3)c2)N(S(=O)(=O)c2ccc(F)cc2)C1 [Example 45, (2S,4R)-4-fluoro-1-(4-fluorophenyl)sulfonyl-N-[[3-fluoro-5-[6-(trifluoromethyl)pyridazin-3-yl]phenyl]methyl]-4-methyl-pyrrolidine-2-carboxamide] | 24 nM

Further compounds by falling IC50, results first:

IC50 | SMILES
128 nM | CNc1nc(CNC(=O)[C@@H]2C[C@@H](F)CN2S(=O)(=O)c2ccc(F)cc2)cc(-c2ccc(C(F)(F)F)cc2)n1 [Example 105, (2S,4R)-4-fluoro-1-[(4-fluorobenzene)sulfonyl]-N-[[2-(methylamino)-6-[4-(trifluoromethyl)phenyl]pyrimidin-4-yl]methyl]pyrrolidine-2-carboxamide]
126 nM | COc1nn(-c2cnc(C(F)(F)F)nc2)cc1CNC(=O)[C@@H]1C[C@@H](F)CN1S(=O)(=O)c1ccc(F)cc1 [Example 132, (2S,4R)-4-fluoro-1-[(4-fluorobenzene)sulfonyl]-N-([3-methoxy-1-[2-(trifluoromethyl)pyrimidin-5-yl]-1H-pyrazol-4-yl]methyl)pyrrolidine-2-carboxamide]
87 nM | O=C(NCc1cc(-c2ccc3c(c2)OC(F)(F)O3)ncn1)[C@@H]1C[C@@H](F)CN1S(=O)(=O)c1ccc(F)cc1 [Example 92, (2S,4R)—N-[[6-(2,2-difluoro-2H-1,3-benzodioxol-5-yl)pyrimidin-4-yl]methyl]-4-fluoro-1-[(4-fluorobenzene)sulfonyl]pyrrolidine-2-carboxamide]
62 nM | CNc1nc(C(F)(F)F)ccc1-c1cc(CNC(=O)[C@@H]2C[C@@H](F)CN2S(=O)(=O)c2ccc(F)cc2)ccn1 [Example 179, (2S,4R)-4-fluoro-1-(4-fluorophenyl)sulfonyl-N-[[2-[2-(methylamino)-6-(trifluoromethyl)-3-pyridyl]-4-pyridyl]methyl]pyrrolidine-2-carboxamide]
26 nM | O=C(NCc1cc(-c2cnc(C(F)(F)F)nc2)ncc1F)[C@@H]1C[C@@H](F)CN1S(=O)(=O)c1ccc(F)cc1 [Example 180, (2S,4R)-4-fluoro-1-(4-fluorophenyl)sulfonyl-N-[[5-fluoro-2-[2-(trifluoromethyl)pyrimidin-5-yl]-4-pyridyl]methyl]pyrrolidine-2-carboxamide]
22 nM | O=C(NCc1cc(N2CCC(OC(F)(F)F)CC2)c(F)cn1)[C@@H]1C[C@@H](F)CN1S(=O)(=O)c1ccc(F)cc1 [Example 66, (2S,4R)-4-fluoro-1-(4-fluorophenyl)sulfonyl-N-[[5-fluoro-4-[4-(trifluoromethoxy)-1-piperidyl]-2-pyridyl]methyl]pyrrolidine-2-carboxamide]
14 nM | O=C(NCc1cc(N2CCC3(CC2)CC3(F)F)c(F)cn1)[C@@H]1C[C@@H](F)CN1S(=O)(=O)c1ccc(F)cc1 [Example 69, (2S,4R)—N-[[4-(2,2-difluoro-6-azaspiro[2.5]octan-6-yl)-5-fluoro-2-pyridyl]methyl]-4-fluoro-1-(4-fluorophenyl)sulfonyl-pyrrolidine-2-carboxamide]
12 nM | O=C(NCc1cc(F)cc(-c2ccc(C(F)(F)F)cn2)c1)[C@@H]1C[C@@H](F)CN1S(=O)(=O)c1ccc(F)cc1 [Example 95, (2S,4R)-4-fluoro-1-(4-fluorophenyl)sulfonyl-N-[[3-fluoro-5-[5-(trifluoromethyl)-2-pyridyl]phenyl]methyl]pyrrolidine-2-carboxamide]
10 nM | O=C(NCc1cc(-c2cnc(C(F)(F)F)nc2)ncc1Cl)[C@@H]1C[C@@H](F)CN1S(=O)(=O)c1ccc(F)cc1 [Example 184, (2S,4R)—N-([5-chloro-2-[2-(trifluoromethyl)pyrimidin-5-yl]pyridin-4-yl]methyl)-4-fluoro-1-[(4-fluorobenzene)sulfonyl]pyrrolidine-2-carboxamide]
9 nM | COc1nn(-c2ccc(C(F)(F)F)nc2)cc1CNC(=O)[C@]1(C)C[C@@H](F)CN1S(=O)(=O)c1ccc(F)cc1 [Example 125, (2S,4R)-4-fluoro-1-[(4-fluorobenzene)sulfonyl]-N-([3-methoxy-1-[6-(trifluoromethyl)pyridin-3-yl]-1H-pyrazol-4-yl]methyl)-2-methylpyrrolidine-2-carboxamide]
